Test results as given in patent publication US11866430B2, “Naphthyridinone compounds useful as T cell activators” (priority 2018, dated 2024).
Read-outs that look alike come from different tables or passages of the source.

Legend:
human DGKα = human DGKα (Homo sapiens (Human), UniProt P23743); assay: biochemical; conditions: detergent/lipid micelle substrate; read-out: DGKα IC50
Description: (§1) The DGKα and DGKζ reactions were performed using either extruded liposome (DGKα and DGKζ LIPGLO assays) or detergent/lipid micelle substrate (DGKα and DGKζ assays). The reactions were carried out in 50 mM MOPS pH 7.5, 100 mM NaCl, 10 mM MgCl2, 1 μM CaCl2, and 1 mM DTT (assay buffer). The reactions using a detergent/lipid micelle substrate also contained 50 mM octyl B-D-glucopyranoside. […] The lipid substrate concentrations were […], 0.25 mM DAG, and 2.75 mM PC for the extruded liposome reactions.
(§2) The compound inhibition studies were carried out as follows: 50 nL droplets of each test compound (top concentration 10 mM with 11 point, 3-fold dilution series for each compound) solubilized in DMSO were transferred to wells of a white 1536 well plate (Corning 3725). A 5 mL enzyme/substrate solution at 2× final reaction concentration was prepared by combining 2.5 mL 4× enzyme solution (20 nM DGKα or DGKζ (prepared as described below) in assay buffer) and 2.5 mL of either 4× liposome or 4× detergent/lipid micelle solution (compositions described below) and incubated at room temperature for 10 minutes. Next, 1 μL 2× enzyme/substrate solution was added to wells containing the test compound and reactions were initiated with the addition of 1 μL 300 uM ATP. The reactions were allowed to proceed for 1 hr, after which 2 μL Glo Reagent (Promega V9101) was added and incubated for 40 minutes. Next, 4 μL Kinase Detection Reagent was added and incubated for 30 minutes. Luminescence was recorded using an EnVision microplate reader. […] The compounds were evaluated at 11 concentrations to determine IC50.
(§3) The detergent/lipid micelle was prepared by combining 15 g phosphatidylserine (Avanti 840035P) and 1 g diacylglycerol (800811O) and dissolving into 150 mL chloroform in a 2 L round bottom flask. Chloroform was removed under high vacuum by rotary evaporation. The resulting colorless, tacky oil was resuspended in 400 mL 50 mM MOPS pH 7.5, 100 mM NaCl, 20 mM NaF, 10 mM MgCl2, 1 μM CaCl2), 1 mM DTT, and 200 mM octyl glucoside by vigorous mixing. The lipid/detergent solution was split into 5 mL aliquots and stored at −80° C.
(§4) Human DGK-alpha-TVMV-His-pFBgate and human DCK-zeta-transcript variant-2-TVMV-His-pFBgate baculovirus samples were generated using the Bac-to-Bac baculovirus expression system (Invitrogen) according to the manufacturer's protocol. The DNA used for expression of DGK-alpha and DGK-zeta have SEQ ID NOs: 1 and 3, respectively. Baculovirus amplification was achieved using infected Sf9 cells at 1:1500 virus/cell ratios, and grown for 65 hours at 27° C. post-transfection.
(§5) The expression scale up for each protein was carried out in the Cellbag 50 L WAVE-Bioreactor System 20/50 from GE Healthcare Bioscience. 12 L of 2×10^6 cells/mL Sf9 cells (Expression System, Davis, Calif.) grown in ESF921 insect medium (Expression System) were infected with virus stock at 1:200 virus/cell ratios, and grown for 66-68 hours at 27° C. post-infection. The infected cell culture was harvested by centrifugation at 2000 rpm for 20 min 4° C. in a SORVALL® RC12BP centrifuge. The cell pellets were stored at −70° C. until purification.
(§6) Full length human DGKα and DGKζ, each expressed containing a TVMV-cleavable C-terminal Hexa-His tag sequence (SEQ ID NOs: 2 and 4, respectively) and produced as described above, were purified from Sf) baculovirus-infected insect cell paste. The cells were lysed using nitrogen cavitation method with a nitrogen bomb (Parr Instruments), and the lysates were clarified by centrifugation. […] The three steps column chromatography included nickel affinity resin capture (i.e. HisTrap FF crude, GE Healthcare), followed by size exclusion chromatography (i.e. HiLoad 26/600 Superdex 200 prep grade, GE Healthcare for DGK-alpha, and HiPrep 26/600 Sephacryl S 300_HR, GE Healthcare for DGK-zeta).

[1] = tested on: pre-activated CD4 T cells and Raji cells; assay: Raji CD4 T Cell IL2 Assay; assay type: cell-based
human DGKζ = human DGKζ (Homo sapiens (Human), UniProt Q13574); assay: DGKζ assay (detergent/lipid micelle substrate); assay type: biochemical; conditions: detergent/lipid micelle substrate; read-out: DGKζ IC50
Sequence of human DGKζ (Q13574 other isoform, or with tags, fused parts or gaps): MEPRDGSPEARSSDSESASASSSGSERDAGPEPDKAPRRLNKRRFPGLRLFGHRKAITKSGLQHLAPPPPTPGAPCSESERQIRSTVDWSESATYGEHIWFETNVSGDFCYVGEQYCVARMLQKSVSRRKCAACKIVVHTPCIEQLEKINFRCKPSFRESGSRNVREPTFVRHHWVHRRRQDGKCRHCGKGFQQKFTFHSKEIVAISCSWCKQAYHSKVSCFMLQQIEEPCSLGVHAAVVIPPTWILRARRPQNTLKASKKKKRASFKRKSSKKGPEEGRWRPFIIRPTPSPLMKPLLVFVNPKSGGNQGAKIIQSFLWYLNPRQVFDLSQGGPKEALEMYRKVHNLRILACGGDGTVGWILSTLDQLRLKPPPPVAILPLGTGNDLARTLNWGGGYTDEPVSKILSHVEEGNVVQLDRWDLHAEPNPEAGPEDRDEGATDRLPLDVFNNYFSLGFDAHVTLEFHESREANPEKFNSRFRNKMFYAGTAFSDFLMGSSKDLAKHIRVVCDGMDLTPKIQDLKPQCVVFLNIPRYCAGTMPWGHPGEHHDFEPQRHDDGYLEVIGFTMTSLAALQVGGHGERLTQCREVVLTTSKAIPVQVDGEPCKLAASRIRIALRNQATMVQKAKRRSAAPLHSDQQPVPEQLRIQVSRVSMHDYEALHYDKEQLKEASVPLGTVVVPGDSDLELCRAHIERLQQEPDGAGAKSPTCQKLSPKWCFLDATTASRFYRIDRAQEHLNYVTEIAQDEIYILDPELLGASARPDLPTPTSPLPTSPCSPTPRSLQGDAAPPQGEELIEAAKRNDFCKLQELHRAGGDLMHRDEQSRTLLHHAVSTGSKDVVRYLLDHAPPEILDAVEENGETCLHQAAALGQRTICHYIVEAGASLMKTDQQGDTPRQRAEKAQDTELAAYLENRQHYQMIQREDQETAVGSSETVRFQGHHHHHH
Description: as §1, §2, §3, §4, §5, §6

Sequence of human DGKα (P23743 other isoform, or with tags, fused parts or gaps): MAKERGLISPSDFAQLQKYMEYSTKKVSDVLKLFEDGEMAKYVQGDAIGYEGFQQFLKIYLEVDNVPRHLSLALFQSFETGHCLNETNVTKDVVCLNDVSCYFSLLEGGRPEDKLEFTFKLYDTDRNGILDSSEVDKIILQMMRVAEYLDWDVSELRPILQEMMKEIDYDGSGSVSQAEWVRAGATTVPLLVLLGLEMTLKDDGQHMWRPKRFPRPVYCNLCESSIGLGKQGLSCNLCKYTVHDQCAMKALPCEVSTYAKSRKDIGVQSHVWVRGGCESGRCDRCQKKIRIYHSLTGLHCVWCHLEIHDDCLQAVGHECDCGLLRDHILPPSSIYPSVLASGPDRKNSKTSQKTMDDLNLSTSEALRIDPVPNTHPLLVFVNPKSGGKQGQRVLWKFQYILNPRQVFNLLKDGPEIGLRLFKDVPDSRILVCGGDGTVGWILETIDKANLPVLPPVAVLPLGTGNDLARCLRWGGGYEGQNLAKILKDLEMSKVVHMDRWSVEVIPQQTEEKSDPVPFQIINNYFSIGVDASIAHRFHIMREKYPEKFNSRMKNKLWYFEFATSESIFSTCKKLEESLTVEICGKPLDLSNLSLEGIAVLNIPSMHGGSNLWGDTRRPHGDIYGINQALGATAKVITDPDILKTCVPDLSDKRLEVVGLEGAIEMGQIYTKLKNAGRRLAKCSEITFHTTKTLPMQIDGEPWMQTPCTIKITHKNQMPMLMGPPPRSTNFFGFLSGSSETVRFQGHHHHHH

Structure (SMILES) | IC50 (human DGKα) | IC50 ([1]; Homo sapiens, Raji) | IC50 (human DGKζ) | IC50 [1]
C#CCn1c(=O)c(C#N)c(N2CCN(Cc3ccc(F)cc3OC)CC2)c2nc(Br)ccc21 [Example 68, 6-bromo-4-(4-(4-fluoro-2-methoxybenzyl)piperazin-1-yl)-2-oxo-1-(prop-2-yn-1-yl)-1,2-dihydro-1,5-naphthyridine-3-carbonitrile] | 4000 nM | 52 nM | 23000 nM | –
Cn1c(=O)c([N+](=O)[O-])c(N2CCN(C(c3ccc(F)cc3)c3ccc(F)cc3)CC2)c2nc(Br)ccc21 [Example 53, 4-(4-(bis(4-fluorophenyl)methyl)piperazin-1-yl)-6-bromo-1-methyl-3-nitro-1,5-naphthyridin-2(1H)-one] | 1500 nM | 43 nM | 16000 nM | –
C=CCOc1cccc(C)c1C(c1ccc(F)cc1)N1CCN(c2c([N+](=O)[O-])c(=O)n(C)c3ccc(Br)nc23)CC1 (single isomer, unassigned) [Example 95, 4-(4-((2-(allyloxy)-6-methylphenyl)(4-fluorophenyl)methyl)piperazin-1-yl)-6-bromo-1-methyl-3-nitro-1,5-naphthyridin-2(1-H)-one] | > 240000 nM | – | > 240000 nM | 1100 nM
Cn1c(=O)c(C#N)c(N2CCN(Cc3ccc(Cl)cc3Cl)CC2)c2nc(Cl)ccc21 [Example 310, 6-chloro-4-{4-[(2,4-dichlorophenyl)methyl]piperazin-1-yl}-1-methyl-2-oxo-1,2-dihydro-1,5-naphthyridine-3-carbonitrile] | 970 nM | 220 nM | > 240000 nM | –
Cn1c(=O)c(C#N)c(N2CCN(Cc3cccc(Cl)c3O)CC2)c2nc(Br)ccc21 [Example 278, 6-bromo-4-{4-[(3-chloro-2-hydroxyphenyl)methyl]piperazin-1-yl}-1-methyl-2-oxo-1,2-dihydro-1,5-naphthyridine-3-carbonitrile] | 350 nM | 87 nM | > 81000 nM | –
C#CCn1c(=O)c([N+](=O)[O-])c(N2CCN(C(c3ccc(F)cc3)C3CC3)CC2)c2nc(C#N)ccc21 (single isomer, unassigned) [Example 144, 8-(4-(cyclopropyl(4-fluorophenyl)methyl)piperazin-1-yl)-7-nitro-6-oxo-5-(prop-2-yn-1-yl)-5,6-dihydro-1,5-naphthyridine-2-carbonitrile] | 530 nM | 20 nM | 7900 nM | –
COCCn1c(=O)c([N+](=O)[O-])c(N2CCN(C(c3ccc(F)cc3)c3ccc(F)cc3)CC2)c2nc(C#N)ccc21 [Example 147, 8-(4-(bis(4-fluorophenyl)methyl)piperazin-yl)-5-(2-methoxyethyl)-7-nitro-6-oxo-5,6-dihydro-1,5-naphthyridine-2-carbonitrile] | 76000 nM | 300 nM | 3600 nM | –
COc1ccc(CN2CCN(c3c(C#N)c(=O)n(C)c4ccc(Cl)nc34)CC2)cc1O [Example 353, 6-chloro-4-{4-[(3-hydroxy-4-methoxyphenyl)methyl]piperazin-1-yl}-1-methyl-2-oxo-1,2-dihydro-1,5-naphthyridine-3-carbonitrile] | 65 nM | 1900 nM | > 240000 nM | –
Cn1c(=O)c(C#N)c(N2CCN(Cc3ccccc3)CC2)c2nc(Cl)ccc21 [Example 343, 4-(4-benzylpiperazin-1-yl)-6-chloro-1-methyl-2-oxo-1,2-dihydro-1,5-naphthyridine-3-carbonitrile] | 68 nM | 810 nM | > 81000 nM | –
Cn1c(=O)c([N+](=O)[O-])c(N2CCN(C(c3ccc(F)cc3)c3ccccc3O)CC2)c2nc(Br)ccc21 (stereo not drawn) [Example 70, 6-bromo-4-(4-((4-fluorophenyl)(2-hydroxyphenyl)methyl)piperazin-1-yl)-1-methyl-3-nitro-1,5-naphthyridin-2(1H)-one] | 130 nM | 8.9 nM | 3300 nM | –
N#Cc1c(N2CCN(C(c3ccc(F)cc3)c3ccc(F)cc3)CC2)c2nc(Br)ccc2n(CC2CC2)c1=O [Example 161, 4-(4-(bis(4-fluorophenyl)methyl)piperazin-1-yl)-6-bromo-1-(cyclopropylmethyl)-2-oxo-1,2-dihydro-1,5-naphthyridine-3-carbonitrile] | > 240000 nM | 5700 nM | > 81000 nM | –
COCCn1c(=O)c(C#N)c(N2CCN(C(c3ccc(F)cc3)c3ccc(F)cc3OC)CC2)c2nc(Br)ccc21 (single isomer, unassigned) [Example 116, 6-bromo-4-(4-((4-fluoro-2-methoxyphenyl)(4-fluorophenyl)methyl)piperazin-1-yl)-1-(2-methoxyethyl)-2-oxo-1,2-dihydro-1,5-naphthyridine-3-carbonitrile] | > 240000 nM | – | > 240000 nM | 170 nM
Cn1c(=O)c(C#N)c(N2CCN(Cc3cccc(O)c3)CC2)c2nc(Cl)ccc21 [Example 351, 6-chloro-4-{4-[(3-hydroxyphenyl)methyl]piperazin-1-yl}-1-methyl-2-oxo-1,2-dihydro-1,5-naphthyridine-3-carbonitrile] | 360 nM | 1500 nM | 190000 nM | –
COCCn1c(=O)c(C#N)c(N2CCN(C(c3ccc(F)cc3)c3ccc(F)cc3OC)CC2)c2nc(Br)ccc21 (single isomer, unassigned) [Example 115, 6-bromo-4-(4-((4-fluoro-2-methoxyphenyl)(4-fluorophenyl)methyl)piperazin-1-yl)-1-(2-methoxyethyl)-2-oxo-1,2-dihydro-1,5-naphthyridine-3-carbonitrile] | 220000 nM | – | > 240000 nM | 3800 nM
COc1cccc(CN2CCN(c3c(C#N)c(=O)n(C)c4ccc(Cl)nc34)CC2)c1 [Example 327, 6-chloro-4-{4-[(3-methoxyphenyl)methyl]piperazin-1-yl}-1-methyl-2-oxo-1,2-dihydro-1,5-naphthyridine-3-carbonitrile] | 660 nM | 430 nM | 140000 nM | –
Cn1c(=O)c([N+](=O)[O-])c(N2CCN(C(c3ccc(F)cc3)c3ccc(F)cc3)CC2)c2nc(C#N)ccc21 [Example 40, 8-(4-(bis(4-fluorophenyl)methyl)piperazin-1-yl)-5-methyl-7-nitro-6-oxo-5,6-dihydro-1,5-naphthyridine-2-carbonitrile] | 1900 nM | 37 nM | 1300 nM | –
N#CCn1c(=O)c(C#N)c(N2CCN(C(c3ccc(F)cc3)c3ccccc3O)CC2)c2nc(Br)ccc21 (stereo not drawn) [Example 157, 6-bromo-1-(cyanomethyl)-4-(4-((4-fluorophenyl)(2-hydroxyphenyl)methyl)piperazin-1-yl)-2-oxo-1,2-dihydro-1,5-naphthyridine-3-carbonitrile] | 53000 nM | 220 nM | 26000 nM | –
Cc1cc(CN2CCN(c3c(C#N)c(=O)n(C)c4ccc(Cl)nc34)CC2)ccc1O [Example 356, 6-chloro-4-{4-[(4-hydroxy-3-methylphenyl)methyl]piperazin-1-yl}-1-methyl-2-oxo-1,2-dihydro-1,5-naphthyridine-3-carbonitrile] | 300 nM | 3000 nM | > 240000 nM | –
CC(=O)Nc1ccccc1CN1CCN(c2c(C#N)c(=O)n(C)c3ccc(Br)nc23)CC1 [Example 215, N-(2-((4-(6-bromo-3-cyano-1-methyl-2-oxo-1,2-dihydro-1,5-naphthyridin-4-yl)piperazin-1-yl)methyl)phenyl)acetamide] | 4100 nM | 480 nM | > 81000 nM | –
